{
  "source": "paper PMC5777153",
  "about": "(Cell chemical biology, 2017)",
  "tested_on": "human kinome",
  "assay": "KinomeScan competitive binding assay across the kinome",
  "details": "10 μM",
  "data": [
    {"smiles": "COc1cc2c(Oc3ccc(NC(=O)C4(C(=O)Nc5ccc(F)cc5)CC4)cc3F)ccnc2cc1OCCCN1CCOCC1", "note": "[foretinib]", "values": [
      {"measurement": "number of kinases bound (percent of control value of 35 or less)", "value": 133, "unit": "kinases"}
    ]}
  ]
}
